Test results from US20030134859A1 (SANKYO COMPANY, LIMITED, priority 2000, published 2003).
Structures can show the parent of a compound that is named as a salt.

Key:
[1] = tested on: TNF-α production; experiment: Inhibitory activity against cytokine (TNF-α) production in LPS-stimulated RAW264.7 cells; type: cell-based, mouse; conditions: Mus musculus, RAW264.7, 15 h, 1 μM test compound, LPS 10 ng/mL
In short: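 Mouse RAW264.7 macrophages (5,000 cells/well) stimulated with 10 ng/mL LPS (final) and treated with test compound at 1 μM final for 15 h at 37 °C. Supernatant mouse TNF-α measured by ELISA; % inhibition = 100−(A−B)/(C−B)×100, using unstimulated and LPS-only controls.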

[2] = tested on: Rat white adipocytes; experiment: Inhibition of the differentiation of adipocytes (Oil Red O); type: cell-based; conditions: 100 nM test compound, 5 days, Oil Red O ABS550, control = 100%, blank = 0%, Table 3; for activity at 0.1 µM: Rattus norvegicus, Adipocyte, 120 h, read-out: Rate of Differentiation (%)
In short: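 Rat white preadipocytes, 5,000 cells/well, given differentiation medium with compound at 100 nM final (0.1% DMSO) for 5 days at 37 °C. Lipid stained with Oil Red O, eluted in DMSO, read at 550 nm; differentiation % relative to DMSO control (100%) and blank (0%).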

Compound	inhibition at 1 µM [1] [%]	activity at 0.1 µM [2] [%]	Rate of Differentiation (%) [2] [%]
O=C(Nc1ccc(-c2ccccc2)cc1)c1cc([N+](=O)[O-])ccc1Cl [Example 2, N-(4-Phenylphenyl)-(2-chloro-5-nitrophenyl)carboxamide]	24.5		
Cc1cnc(NC(=O)c2cc([N+](=O)[O-])ccc2Cl)s1 [Example 4, N-(5-Methylthiazol-2-yl)-(2-chloro-5-nitrophenyl)carboxamide]	18.5		
O=C(Nc1ccc(-c2ccccn2)cc1)c1cc([N+](=O)[O-])ccc1Cl [Example 8, N-[4-(2-Pyridyl)phenyl]-(2-chloro-5-nitrophenyl)carboxamide]	18.9		
Cc1ccc2nc(-c3ccc(NC(=O)c4cc([N+](=O)[O-])ccc4Cl)cc3)sc2c1 [Example 10, N-[4-(6-Methylbenzothiazol-2-yl)phenyl]-(2-chloro-5-nitrophenyl)carboxamide]		51.1	
CCCCCc1ccc(NC(=O)c2cc([N+](=O)[O-])ccc2Cl)cc1 [Example 16, N-(4-Pentylphenyl)-(2-chloro-5-nitrophenyl)carboxamide]	19		
N#Cc1ccc(NC(=O)c2cc([N+](=O)[O-])ccc2Cl)cc1 [Example 20, N-(4-Cyanophenyl)-(2-chloro-5-nitrophenyl)carboxamide]		57.7	
CC(C)(C)c1cc(NC(=O)c2cc([N+](=O)[O-])ccc2Cl)cc(C(C)(C)C)c1O [Example 29, N-(3,5-Di-t-butyl-4-hydroxyphenyl)-(2-chloro-5-nitrophenyl)carboxamide]	22.9		
O=C(Nc1nc(-c2cccnc2)cs1)c1cc([N+](=O)[O-])ccc1Cl [Example 37, N-[4-(3-Pyridyl)thiazol-2-yl)-(2-chloro-5-nitrophenyl)carboxamide]	16		
Cc1ccccc1-c1csc(NC(=O)c2cc([N+](=O)[O-])ccc2Cl)n1 [Example 39, N-[4-(2-Methylphenyl)thiazol-2-yl]-(2-chloro-5-nitrophenyl)carboxamide]	29.8		
Cc1cccc(-c2csc(NC(=O)c3cc([N+](=O)[O-])ccc3Cl)n2)c1 [Example 40, N-[4-(3-Methylphenyl)thiazol-2-yl)-(2-chloro-5-nitrophenyl)carboxamide]	27.1		
O=C(Nc1nc(-c2cccc3ccccc23)cs1)c1cc([N+](=O)[O-])ccc1Cl [Example 41, N-[4-(1-Naphthyl)thiazol-2-yl]-(2-chloro-5-nitrophenyl)carboxamide]	30		
CCc1ccc(-c2csc(NC(=O)c3cc([N+](=O)[O-])ccc3Cl)n2)cc1 [Example 44, N-[4-(4-Ethylphenyl)thiazol-2-yl]-(2-chloro-5-nitrophenyl)carboxamide]	18		
Cc1ccc(-c2nc(NC(=O)c3cc([N+](=O)[O-])ccc3Cl)sc2C)cc1Cl [Example 46, N-[4-(3-Chloro-4-methylphenyl)-5-methylthiazol-2-yl]-(2-chloro-5-nitrophenyl)carboxamide]	30.7		
Cc1nc(NC(=O)c2cc([N+](=O)[O-])ccc2Cl)sc1C [Example 47]	16.7		
Cc1ccc(NC(=O)c2cc([N+](=O)[O-])ccc2Cl)nc1 [Example 52, N-(5-Methylpyridin-2-yl)-(2-chloro-5-nitrophenyl)carboxamide]	16.2		
O=C(Nc1ccc2c3c(cccc13)CC2)c1cc([N+](=O)[O-])ccc1Cl [Example 54, N-(Acenaphthen-5-yl)-(2-chloro-5-nitrophenyl)carboxamide]	16.8		
Nc1ccc(NC(=O)c2cc([N+](=O)[O-])ccc2Cl)cc1 [Example 58, N-(4-Aminophenyl)-(2-chloro-5-nitrophenyl)carboxamide mono-hydrochloride]		51.7	
O=C(Nc1c(Cl)ncnc1Cl)c1cc([N+](=O)[O-])ccc1Cl [Example 81, N-(4,6-Dichloropyrimidin-5-yl)-(2-chloro-5-nitrophenyl)carboxamide]	32		
CC(C)(C)OC(=O)Nc1ccc(-c2ccc(NC(=O)c3cc([N+](=O)[O-])ccc3Cl)cc2)cc1 [Example 87, N-[4-[4-(tert-Butoxycarbonylamino)phenyl]phenyl]-(2-chloro-5-nitrophenyl)carboxamide]		75.2	
O=C(Nc1nc(-c2ccc(F)c(F)c2)cs1)c1cc([N+](=O)[O-])ccc1Cl [Example 111, N-[4-(3,4-Difluorophenyl)thiazol-2-yl]-(2-chloro-5-nitrophenyl)carboxamide]	28.7		

Compound	inhibition at 1 µM [1] [%]	activity at 0.1 µM [2] [%]	Rate of Differentiation (%) [2] [%]
CCCCCCN(CCCCCC)c1ccc(NC(=O)c2cc([N+](=O)[O-])ccc2Cl)cc1 [Example 138, N-[4-(N,N-di-n-Hexylamino)phenyl]-(2-chloro-5-nitrophenyl)carboxamide]	17.8		
CC(C)(C)c1cc(C(=O)Nc2ccc(NC(=O)c3cc([N+](=O)[O-])ccc3Cl)cc2)cc(C(C)(C)C)c1O [Example 157, N-[4-[(3,5-di-tert-Butyl-4-hydroxybenzoyl)amino]phenyl]-(2-chloro-5-nitrophenyl)carboxamide]	38.6		
CCCN(CC)c1ccc(NC(=O)c2cc([N+](=O)[O-])ccc2Cl)cc1 [Example 189, N-[4-(N-Ethyl-N-propylamino)phenyl]-(2-chloro-5-nitrophenyl)carboxamide]	16.3		
O=C(Nc1cccc(O)c1)c1cc([N+](=O)[O-])ccc1Cl [Example 191, N-(3-Hydroxyphenyl)-(2-chloro-5-nitrophenyl)carboxamide]		63.4	
CCCCCCNc1ccc(-c2ccc(NC(=O)c3cc([N+](=O)[O-])ccc3Cl)cc2)cc1 [Example 195, N-[4-[4-(N-Hexylamino)phenyl]phenyl]-(2-chloro-5-nitrophenyl)carboxamide]	16.1	36.5	
CCCCCCN(C)c1ccc(-c2ccc(NC(=O)c3cc([N+](=O)[O-])ccc3Cl)cc2)cc1 [Example 196, N-[4-[4-(N-Hexyl-N-methylamino)phenyl]phenyl]-(2-chloro-5-nitrophenyl)carboxamide]	15.3	53.4	
CCCCCCCCN(CCCC)c1ccc(-c2ccc(NC(=O)c3cc([N+](=O)[O-])ccc3Cl)cc2)cc1 [Example 222, N-[4-[4-(N-Butyl-N-octylamino)phenyl]phenyl]-(2-chloro-5-nitrophenyl)carboxamide]		48.6	
CCCCCCCCN(CC)c1ccc(-c2ccc(NC(=O)c3cc([N+](=O)[O-])ccc3Cl)cc2)cc1 [Example 225, N-[4-[4-(N-Ethyl-N-octylamino)phenyl]phenyl]-(2-chloro-5-nitrophenyl)carboxamide]		45.9	
O=C(Nc1ccc(N2CCN(C(=O)c3ccncc3)CC2)cc1)c1cc([N+](=O)[O-])ccc1Cl [Example 228, N-[4-[4-(Pyridin-4-ylcarbonyl)piperazin-1-yl]phenyl]-(2-chloro-5-nitrophenyl)carboxamide]		17.5	
O=C(Nc1ccc(CCO)cc1)c1cc([N+](=O)[O-])ccc1Cl [Example 230, N-[4-(2-Hydroxyethyl)phenyl]-(2-chloro-5-nitrophenyl)carboxamide]		48.9	
O=C(Nc1ccc(-n2ccnc2)cc1)c1cccc(NC(=O)c2cc([N+](=O)[O-])ccc2Cl)c1 [Example 231, N-[[3-[4-(Imidazol-1-yl)phenyl]aminocarbonyl]phenyl]-(2-chloro-5-nitrophenyl)carboxamide]		20.1	
CCN(c1ccc(NS(=O)(=O)c2ccc(NC(=O)c3cc([N+](=O)[O-])ccc3Cl)cc2)cc1)C(C)C [Example 232, N-[[4-[4-(N-Ethyl-N-isopropylamino)phenyl]aminosulfonyl]phenyl]-(2-chloro-5-nitrophenyl)carboxamide]		45.4	
Nc1nc(-c2cccc(NC(=O)c3cc([N+](=O)[O-])ccc3Cl)c2)cs1 [Example 233, N-[3-(2-Amiothiazol-4-yl)phenyl]-(2-chloro-5-nitrophenyl)carboxamide]		47.4	
CC(O)c1cccc(NC(=O)c2cc([N+](=O)[O-])ccc2Cl)c1 (centres unmarked) [Example 239, N-[3-(1-Hydroxyethyl)phenyl]-(2-chloro-5-nitrophenyl)carboxamide]		52.8	
O=C(Nc1ccc(NC(=S)Nc2cccnc2)cc1)c1cc([N+](=O)[O-])ccc1Cl [Example 257, N-[4-[(Pyridin-3-yl)aminothiocarbonylamino]phenyl]-(2-chloro-5-nitrophenyl)carboxamide]		59.8	
O=C(Nc1ccc(-c2ccc(NC(=S)Nc3ccncc3)cc2)cc1)c1cc([N+](=O)[O-])ccc1Cl [Example 258, N-[4-[4-[(Pyridin-4-yl)aminothiocarbonylamino]phenyl]phenyl]-(2-chloro-5-nitrophenyl)carboxamide]		39	
O=C(Nc1ccc(NC(=S)Nc2ccncc2)cc1)c1cc([N+](=O)[O-])ccc1Cl [Example 259, N-[4-[(Pyridin-4-yl)aminothiocarbonylamino]phenyl]-(2-chloro-5-nitrophenyl)carboxamide]		56.5	
NCCc1ccc(NC(=O)c2cc([N+](=O)[O-])ccc2Cl)cc1 [Example 267, N-[4-(2-Aminoethyl)phenyl]-(2-chloro-5-nitrophenyl)carboxamide]		47.3	
N-(Ethoxyphenyl)-(2-chloro-5-nitrophenyl)carboxamide [Example 229]			62.7
